The record followed here is the supplement of paper PMC11368000.

Molecules are shown by their SMILES.

For the first assay, the system named is 30171 (donor line of iPSC-derived cardiomyocytes). The assay is described as follows: POD (EC05) for increase in beat frequency (positive chronotrope) vs vehicle; higher = less potent (higher point of departure). Conditions: exposure time: 90 min. Here is the method: (§1)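 Human iPSC-derived cardiomyocytes from 16 donors were exposed for 90 min at 37 °C to each PFAS at 0.1, 1, 10 and 100 µM in 0.5% DMSO, 384-well plates. Kinetic Ca2+ flux (FLIPR) and Hoechst nuclei counts were normalised to vehicle wells and fitted with a hierarchical Bayesian Hill model to give donor-specific PODs: EC05 for beat-rate increase or decrease and for decay-to-rise ratio increase (QT proxy), EC95 for peak-frequency loss (asystole), EC10 for total cell number loss. 0.03 µM is the lower bound.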
In turn, `O=C(O)C(F)(F)C(F)(F)C(F)(F)C(F)(F)C(F)(F)C(F)(F)C(F)(F)C(F)(F)F` [Perfluorononanoic_acid] gave a POD vs vehicle of more than 100 µM.

The compound `NC(=O)C(F)(F)C(F)(F)C(F)(F)C(F)(F)C(F)(F)C(F)(F)C(F)(F)F` [Perfluorooctanamide] came in with a POD vs vehicle of more than 100 µM.

Turning to `N=C(N)C(F)(F)C(F)(F)C(F)(F)C(F)(F)C(F)(F)C(F)(F)C(F)(F)F` [Perfluorooctanamidine], the POD vs vehicle is more than 100 µM.

Compound `O=S(=O)(O)C(F)(F)C(F)(F)C(F)(F)C(F)(F)C(F)(F)C(F)(F)C(F)(F)C(F)(F)F` [Perfluorooctanesulfonic_acid] registered a POD vs vehicle of more than 100 µM.

Take `O=C(O)C(F)(F)C(F)(F)C(F)(F)C(F)(F)C(F)(F)C(F)(F)C(F)(F)F` [Perfluorooctanoic_acid]: the POD vs vehicle was more than 100 µM.

`O=C(O)C(F)(F)C(F)(F)C(F)(F)C(F)(F)F` [Perfluoropentanoic_acid] displayed a POD vs vehicle of more than 100 µM.

In turn, `O=C(O)C(F)(F)C(F)(F)F` [Perfluoropropanoic_acid] came in with a POD vs vehicle of more than 100 µM.

Compound `O=S(=O)([O-])C(F)(F)C(F)(F)C(F)(F)C(F)(F)F.[K+]` [Potassium_perfluorobutanesulfonate] yielded a POD vs vehicle of more than 100 µM.

In the next assay the test system is 1083 (donor line of iPSC-derived cardiomyocytes). The assay is described as above. To be noted: exposure time: 90 min. Here is the method: as §1
Compound `O=C(O)C(F)(F)C(F)(F)OC(F)(F)F` [Perfluoro-3-methoxypropanoic_acid] showed a POD vs vehicle of more than 100 µM.

`O=C(O)C(F)(F)C(F)(F)C(F)(F)OC(F)(C(F)(F)F)C(F)(F)F` [Perfluoro-4-isopropoxybutanoic_acid] had a POD vs vehicle of more than 100 µM.

Consider `O=C(O)C(F)(F)C(F)(F)C(F)(F)F` [Perfluorobutanoic_acid], for which the POD vs vehicle is more than 100 µM.

Consider `O=C(O)C(F)(F)C(F)(F)C(F)(F)C(F)(F)C(F)(F)C(F)(F)C(F)(F)C(F)(F)C(F)(F)F` [Perfluorodecanoic_acid], for which the POD vs vehicle was more than 100 µM.

Turning to `O=C(O)C(F)(F)C(F)(F)C(F)(F)C(F)(F)C(F)(F)C(F)(F)F` [Perfluoroheptanoic_acid], the POD vs vehicle is more than 100 µM.

In turn, `NS(=O)(=O)C(F)(F)C(F)(F)C(F)(F)C(F)(F)C(F)(F)C(F)(F)F` [Perfluorohexanesulfonamide] gave a POD vs vehicle of more than 100 µM.

Regarding `O=S(=O)(O)C(F)(F)C(F)(F)C(F)(F)C(F)(F)C(F)(F)C(F)(F)F` [Perfluorohexanesulfonic_acid], the POD vs vehicle was more than 100 µM.

In the case of `O=C(O)C(F)(F)C(F)(F)C(F)(F)C(F)(F)C(F)(F)F` [Perfluorohexanoic_acid], the POD vs vehicle is more than 100 µM.

As for `O=C(O)C(F)(F)C(F)(F)C(F)(F)C(F)(F)C(F)(F)C(F)(F)C(F)(F)C(F)(F)F` [Perfluorononanoic_acid], the POD vs vehicle is more than 100 µM.

`NC(=O)C(F)(F)C(F)(F)C(F)(F)C(F)(F)C(F)(F)C(F)(F)C(F)(F)F` [Perfluorooctanamide] displayed a POD vs vehicle of more than 100 µM.

In turn, `N=C(N)C(F)(F)C(F)(F)C(F)(F)C(F)(F)C(F)(F)C(F)(F)C(F)(F)F` [Perfluorooctanamidine] displayed a POD vs vehicle of more than 100 µM.

As for `O=S(=O)(O)C(F)(F)C(F)(F)C(F)(F)C(F)(F)C(F)(F)C(F)(F)C(F)(F)C(F)(F)F` [Perfluorooctanesulfonic_acid], the POD vs vehicle is more than 100 µM.

`O=C(O)C(F)(F)C(F)(F)C(F)(F)C(F)(F)C(F)(F)C(F)(F)C(F)(F)F` [Perfluorooctanoic_acid] showed a POD vs vehicle of more than 100 µM.

Consider `O=C(O)C(F)(F)C(F)(F)C(F)(F)C(F)(F)F` [Perfluoropentanoic_acid], for which the POD vs vehicle is more than 100 µM.

Regarding `O=C(O)C(F)(F)C(F)(F)F` [Perfluoropropanoic_acid], the POD vs vehicle is more than 100 µM.

In the case of `O=S(=O)([O-])C(F)(F)C(F)(F)C(F)(F)C(F)(F)F.[K+]` [Potassium_perfluorobutanesulfonate], the POD vs vehicle is more than 100 µM.

In the next assay the test system is 1309 (donor line of iPSC-derived cardiomyocytes). The description is as above. To be noted: exposure time: 90 min. Here is the method:
as §1
In the case of `O=C(O)C(F)(F)C(F)(F)OC(F)(F)F` [Perfluoro-3-methoxypropanoic_acid], the POD vs vehicle was more than 100 µM.

As to `O=C(O)C(F)(F)C(F)(F)C(F)(F)OC(F)(C(F)(F)F)C(F)(F)F` [Perfluoro-4-isopropoxybutanoic_acid], the POD vs vehicle is more than 100 µM.

`O=C(O)C(F)(F)C(F)(F)C(F)(F)F` [Perfluorobutanoic_acid]: the POD vs vehicle was more than 100 µM.

In the case of `O=C(O)C(F)(F)C(F)(F)C(F)(F)C(F)(F)C(F)(F)C(F)(F)C(F)(F)C(F)(F)C(F)(F)F` [Perfluorodecanoic_acid], the POD vs vehicle is more than 100 µM.

In turn, `O=C(O)C(F)(F)C(F)(F)C(F)(F)C(F)(F)C(F)(F)C(F)(F)F` [Perfluoroheptanoic_acid] yielded a POD vs vehicle of more than 100 µM.

The compound `NS(=O)(=O)C(F)(F)C(F)(F)C(F)(F)C(F)(F)C(F)(F)C(F)(F)F` [Perfluorohexanesulfonamide] gave a POD vs vehicle of more than 100 µM.

With `O=S(=O)(O)C(F)(F)C(F)(F)C(F)(F)C(F)(F)C(F)(F)C(F)(F)F` [Perfluorohexanesulfonic_acid], the POD vs vehicle was more than 100 µM.

For `O=C(O)C(F)(F)C(F)(F)C(F)(F)C(F)(F)C(F)(F)F` [Perfluorohexanoic_acid], the POD vs vehicle was more than 100 µM.

Turning to `O=C(O)C(F)(F)C(F)(F)C(F)(F)C(F)(F)C(F)(F)C(F)(F)C(F)(F)C(F)(F)F` [Perfluorononanoic_acid], the POD vs vehicle was more than 100 µM.

As to `NC(=O)C(F)(F)C(F)(F)C(F)(F)C(F)(F)C(F)(F)C(F)(F)C(F)(F)F` [Perfluorooctanamide], the POD vs vehicle is more than 100 µM.

Regarding `N=C(N)C(F)(F)C(F)(F)C(F)(F)C(F)(F)C(F)(F)C(F)(F)C(F)(F)F` [Perfluorooctanamidine], the POD vs vehicle was more than 100 µM.

On to `O=S(=O)(O)C(F)(F)C(F)(F)C(F)(F)C(F)(F)C(F)(F)C(F)(F)C(F)(F)C(F)(F)F` [Perfluorooctanesulfonic_acid], for which the POD vs vehicle was more than 100 µM.

As for `O=C(O)C(F)(F)C(F)(F)C(F)(F)C(F)(F)C(F)(F)C(F)(F)C(F)(F)F` [Perfluorooctanoic_acid], the POD vs vehicle was more than 100 µM.

Regarding `O=C(O)C(F)(F)C(F)(F)C(F)(F)C(F)(F)F` [Perfluoropentanoic_acid], the POD vs vehicle is more than 100 µM.

Turning to `O=C(O)C(F)(F)C(F)(F)F` [Perfluoropropanoic_acid], the POD vs vehicle was more than 100 µM.

As for `O=S(=O)([O-])C(F)(F)C(F)(F)C(F)(F)C(F)(F)F.[K+]` [Potassium_perfluorobutanesulfonate], the POD vs vehicle was more than 100 µM.
